Where a name gives a salt, the structure may show the parent alone.
Molecular target: PI3Kδ (p110δ/p85α) (Homo sapiens (Human), UniProt O00329)
Test: Example A3: PI3Kδ scintillation proximity assay
Type: biochemical
Conditions: scintillation proximity assay, 20 μM ATP, 4 nM PI3Kδ; read-out: PI3Kδ SPA IC50
Protocol: [γ-^33P]ATP (10 mCi/mL) was purchased from Perkin-Elmer (Waltham, Mass.). […] PI3Kδ (p110δ/p85α) was purchased from Millipore (Bedford, Mass.). ATP, MgCl2, DTT, EDTA, MOPS and CHAPS were purchased from Sigma-Aldrich (St. Louis, Mo.). Wheat Germ Agglutinin (WGA) YSi SPA Scintillation Beads was purchased from GE healthcare life sciences (Piscataway, N.J.).
The kinase reaction was conducted in polystyrene 384-well matrix white plate from Thermo Fisher Scientific in a final volume of 25 μL. Inhibitors were first diluted serially in DMSO and added to the plate wells before the addition of other reaction components. The final concentration of DMSO in the assay was 0.5%. The PI3K assays were carried out at room temperature in 20 mM MOPS, pH 6.7, 10 mM MgCl2, 5 mM DTT and CHAPS 0.03%. Reactions were initiated by the addition of ATP, the final reaction mixture consisted of 20 μM PIP2, 20 μM ATP, 0.2 μCi [γ-^33P] ATP, 4 nM PI3Kδ. […] 25 mM EDTA, 400 μM ATP. The final concentration of SPA beads was 1.0 mg/mL. After the plate sealing, plates were shaken overnight at room temperature and centrifuged at 1800 rpm for 10 minutes, the radioactivity of the product was determined by scintillation counting on Topcount (Perkin-Elmer). IC50 determination was performed by fitting the curve of percent control activity versus the log of the inhibitor concentration using the GraphPad Prism 3.0 software.

PI3Kδ (p110δ/p85α), sequence (O00329 whole entry): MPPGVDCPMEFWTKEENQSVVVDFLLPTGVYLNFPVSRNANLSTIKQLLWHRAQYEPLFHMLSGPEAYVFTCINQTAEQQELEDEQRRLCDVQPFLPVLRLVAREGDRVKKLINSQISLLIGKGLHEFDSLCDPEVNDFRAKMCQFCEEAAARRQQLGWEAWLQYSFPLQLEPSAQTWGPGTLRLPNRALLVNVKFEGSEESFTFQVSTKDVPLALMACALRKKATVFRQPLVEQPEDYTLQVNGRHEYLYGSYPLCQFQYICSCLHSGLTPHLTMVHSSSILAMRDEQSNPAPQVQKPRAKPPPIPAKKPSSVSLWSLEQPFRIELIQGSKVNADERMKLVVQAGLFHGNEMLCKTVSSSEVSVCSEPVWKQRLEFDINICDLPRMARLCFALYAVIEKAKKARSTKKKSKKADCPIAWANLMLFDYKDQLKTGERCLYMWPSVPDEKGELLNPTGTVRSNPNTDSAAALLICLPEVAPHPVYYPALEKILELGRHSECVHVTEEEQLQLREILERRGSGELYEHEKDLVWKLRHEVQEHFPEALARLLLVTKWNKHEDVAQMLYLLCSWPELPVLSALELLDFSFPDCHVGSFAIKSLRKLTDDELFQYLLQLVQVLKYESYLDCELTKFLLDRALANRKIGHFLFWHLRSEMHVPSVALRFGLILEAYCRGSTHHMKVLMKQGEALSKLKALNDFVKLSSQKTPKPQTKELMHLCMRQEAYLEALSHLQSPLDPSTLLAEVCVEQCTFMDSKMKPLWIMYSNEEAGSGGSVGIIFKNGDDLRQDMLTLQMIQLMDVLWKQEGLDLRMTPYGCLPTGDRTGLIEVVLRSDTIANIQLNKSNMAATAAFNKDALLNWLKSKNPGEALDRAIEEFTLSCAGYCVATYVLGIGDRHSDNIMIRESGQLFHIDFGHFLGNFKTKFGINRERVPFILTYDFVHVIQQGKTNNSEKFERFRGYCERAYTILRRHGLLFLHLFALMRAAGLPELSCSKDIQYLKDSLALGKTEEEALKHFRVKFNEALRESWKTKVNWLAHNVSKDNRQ
PI3Kδ (p110δ/p85α), sequence (P27986 whole entry partner): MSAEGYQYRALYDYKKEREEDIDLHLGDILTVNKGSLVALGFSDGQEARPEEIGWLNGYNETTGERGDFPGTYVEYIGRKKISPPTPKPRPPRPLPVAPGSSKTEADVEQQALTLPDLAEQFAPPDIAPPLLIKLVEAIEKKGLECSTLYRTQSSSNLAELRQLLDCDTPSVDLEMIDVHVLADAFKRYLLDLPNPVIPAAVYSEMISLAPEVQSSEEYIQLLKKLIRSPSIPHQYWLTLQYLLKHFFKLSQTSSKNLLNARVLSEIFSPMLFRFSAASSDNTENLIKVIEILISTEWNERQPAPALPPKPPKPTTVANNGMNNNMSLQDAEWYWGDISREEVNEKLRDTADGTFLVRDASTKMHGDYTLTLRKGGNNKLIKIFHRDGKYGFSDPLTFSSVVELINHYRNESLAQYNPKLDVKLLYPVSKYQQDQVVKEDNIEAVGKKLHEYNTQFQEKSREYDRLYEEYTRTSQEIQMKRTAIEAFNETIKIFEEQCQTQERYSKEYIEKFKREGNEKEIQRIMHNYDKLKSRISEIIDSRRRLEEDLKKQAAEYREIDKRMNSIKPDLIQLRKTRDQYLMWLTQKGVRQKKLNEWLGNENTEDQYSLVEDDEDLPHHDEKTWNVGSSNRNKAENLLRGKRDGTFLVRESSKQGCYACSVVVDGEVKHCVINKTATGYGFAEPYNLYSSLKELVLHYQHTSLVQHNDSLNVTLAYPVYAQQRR

IC50 [nM] | SMILES
< 10 | CCOc1c(C(C)n2nc(C#C[C@H](C)O)c3c(N)ncnc32)cc(Cl)c(C)c1-c1ccc(C(=O)N(C)C)nc1 (stereo partly drawn) [Example 80, 5-[3-(1-{4-Amino-3-[(3S)-3-hydroxybut-1-yn-1-yl]-1H-pyrazolo[3,4-d]pyrimidin-1-yl}ethyl)-5-chloro-2-ethoxy-6-methylphenyl]-N,N-dimethylpyridine-2-carboxamide bis(trifluoroacetate)]
< 10 | CNC(=O)N1CC(c2c(C#N)c(Cl)cc(C(C)n3nc(C)c4c(N)ncnc43)c2OC)C1 (single isomer, unassigned) [Example 294, 3-{3-[1-(4-Amino-3-methyl-1H-pyrazolo[3,4-d]pyrimidin-1-yl)ethyl]-5-chloro-6-cyano-2-methoxyphenyl}-N-methylazetidine-1-carboxamide]
< 10 | CCOc1c(C(C)n2nc(C)c3c(N)ncnc32)cc(Cl)c(C#N)c1C1CN(CC2CC2)C1 (single isomer, unassigned) [Example 217, 4-[1-(4-Amino-3-methyl-1H-pyrazolo[3,4-d]pyrimidin-1-yl)ethyl]-6-chloro-2-[1-(cyclopropylmethyl)azetidin-3-yl]-3-ethoxybenzonitrile]
< 10 | COc1c(C(C)n2nc(C)c3c(N)ncnc32)cc(Cl)c(C#N)c1C1CN(C2CCOC2)C1 (single isomer, unassigned) [Example 276, 4-[1-(4-Amino-3-methyl-1H-pyrazolo[3,4-d]pyrimidin-1-yl)ethyl]-6-chloro-3-methoxy-2-[1-(tetrahydrofuran-3-yl)azetidin-3-yl]benzonitrile]
< 10 | COc1c(C(C)n2nc(C(F)F)c3c(N)ncnc32)cc(C#N)c(C)c1C1CN(C(C)=O)C1 (racemic) [Example 138, 3-(1-Acetylazetidin-3-yl)-5-{1-[4-amino-3-(difluoromethyl)-1H-pyrazolo[3,4-d]pyrimidin-1-yl]ethyl}-4-methoxy-2-methylbenzonitrile]
< 10 | CCOc1c(C(C)n2nc(C)c3c(N)ncnc32)cc(Cl)c(C)c1C1CN(C(=O)c2cnn(C)c2)C1 (stereo not shown) [Example 101, 1-[1-(5-Chloro-2-ethoxy-4-methyl-3-{1-[(1-methyl-1H-pyrazol-4-yl)carbonyl]azetidin-3-yl}phenyl)ethyl]-3-methyl-1H-pyrazolo[3,4-d]pyrimidin-4-amine trifluoroacetate]
< 10 | COc1c(C(C)n2nc(C)c3c(N)ncnc32)cc(Cl)c(C)c1C1CN([C@H](C)C(=O)N(C)C)C1 (stereo partly drawn) [Example 159, (2R)-2-(3-{3-[1-(4-Amino-3-methyl-1H-pyrazolo[3,4-d]pyrimidin-1-yl)ethyl]-5-chloro-2-methoxy-6-methylphenyl}azetidin-1-yl)-N,N-dimethylpropanamide]
< 10 | CCNC(=O)c1c(C)c(Cl)cc(C(C)n2nc(-c3ccc4oc(N)nc4c3)c3c(N)ncnc32)c1OCC (racemic) [Example 89, 3-(1-(4-Amino-3-(2-aminobenzo[d]oxazol-5-yl)-1H-pyrazolo[3,4-d]pyrimidin-1-yl)ethyl)-5-chloro-2-ethoxy-N-ethyl-6-methylbenzamide]
< 10 | COc1c(C(C)n2nc(C)c3c(N)ncnc32)cc(Cl)c(C#N)c1C1CNC1 (single isomer, unassigned) [Example 261, 4-[1-(4-Amino-3-methyl-1H-pyrazolo[3,4-d]pyrimidin-1-yl)ethyl]-2-azetidin-3-yl-6-chloro-3-methoxybenzonitrile]
< 10 | CCOc1c(C(C)n2nc(C)c3c(N)ncnc32)cc(Cl)c(C#N)c1N1CC(C#N)C1 (racemic) [Example 342, 1-{3-[1-(4-amino-3-methyl-1H-pyrazolo[3,4-d]pyrimidin-1-yl)ethyl]-5-chloro-6-cyano-2-ethoxyphenyl}azetidine-3-carbonitrile]
< 10 | COc1c(C(C)n2nc(C)c3c(N)ncnc32)cc(Cl)c(F)c1C1CN(C[C@@H](C)O)C1 (stereo partly drawn) [Example 69, (2R)-1-(3-{3-[1-(4-Amino-3-methyl-1H-pyrazolo[3,4-d]pyrimidin-1-yl)ethyl]-5-cyloro-6-fluoro-2-methoxyphenyl}azetidin-1-yl)propan-2-ol]
< 10 | COc1c(C(C)n2nc(C)c3c(N)ncnc32)cc(Cl)c(C)c1C1CN(C(CO)C(F)(F)F)C1 (stereo not shown) [Example 113, 2-(3-{3-[1-(4-Amino-3-methyl-1H-pyrazolo[3,4-d]pyrimidin-1-yl)ethyl]-5-chloro-2-methoxy-6-methylphenyl}azetidin-1-yl)-3,3,3-trifluoropropan-1-ol]
< 10 | COc1c(C(C)n2nc(C)c3c(N)ncnc32)cc(Cl)c(C)c1C1CN(CC(F)(F)F)C1 (single isomer, unassigned) [Example 108, 1-(1-{5-Chloro-2-methoxy-4-methyl-3-[1-(2,2,2-trifluoroethyl)azetidin-3-yl]phenyl}ethyl)-3-methyl-1H-pyrazolo[3,4-d]pyrimidin-4-amine]
< 10 | CCOc1c(C(C)n2nc(C)c3c(N)ncnc32)cc(Cl)c(C#N)c1-c1ccc(-c2cnn(C)n2)nc1 (racemic) [Example 337, 4-[1-(4-amino-3-methyl-1H-pyrazolo[3,4-d]pyrimidin-1-yl)ethyl]-6-chloro-3-ethoxy-2-[6-(2-methyl-2H-1,2,3-triazol-4-yl)pyridin-3-yl]benzonitrile]
< 10 | COc1c(C(C)n2nc(C)c3c(N)ncnc32)cc(Cl)c(C#N)c1C1CN(CC2CCOC2)C1 (single isomer, unassigned) [Example 279, 4-[1-(4-Amino-3-methyl-1H-pyrazolo[3,4-d]pyrimidin-1-yl)ethyl]-6-chloro-3-methoxy-2-[1-(tetrahydrofuran-3-ylmethyl)azetidin-3-yl]benzonitrile]
< 10 | CCOc1c(C(C)n2nc(C)c3c(N)ncnc32)cc(Cl)c(C#N)c1-c1cncc(S(C)(=O)=O)c1 (racemic) [Example 43, 4-[1-(4-amino-3-methyl-1H-pyrazolo[3,4-d]pyrimidin-1-yl)ethyl]-6-chloro-3-ethoxy-2-[5-(methylsulfonyl)pyridin-3-yl]benzonitrile]
< 10 | COC(=O)N1CC(c2c(C#N)c(Cl)cc(C(C)n3nc(C)c4c(N)ncnc43)c2OC)C1 (single isomer, unassigned) [Example 289, Methyl 3-{3-[1-(4-amino-3-methyl-1H-pyrazolo[3,4-d]pyrimidin-1-yl)ethyl]-5-chloro-6-cyano-2-methoxyphenyl}azetidine-1-carboxylate]
< 10 | COc1c(C(C)n2nc(C)c3c(N)ncnc32)cc(Cl)c(F)c1C1CN(C)C1 (stereo not shown) [Example 72]
< 10 | COc1c(C(C)n2nc(C)c3c(N)ncnc32)cc(Cl)c(C)c1-c1cncc(C(=O)N(C)C)c1 (single isomer, unassigned) [Example 65, 5-{3-[1-(4-amino-3-methyl-1H-pyrazolo[3,4-d]pyrimidin-1-yl)ethyl]-5-chloro-2-methoxy-6-methylphenyl}-N,N-dimethylnicotinamide]
< 10 | CCOc1c(C(C)n2nc(C)c3c(N)ncnc32)cc(C)c(C#N)c1C1CN(C(C)C)C1 (racemic) [Example 320, 4-[1-(4-amino-3-methyl-1H-pyrazolo[3,4-d]pyrimidin-1-yl)ethyl]-3-ethoxy-2-(1-isopropylazetidin-3-yl)-6-methylbenzonitrile]
< 10 | COc1c(C(C)n2nc(C)c3c(N)ncnc32)cc(Cl)c(C)c1-c1cnn(C2CCN(C)CC2)c1 (single isomer, unassigned) [Example 181, 1-(1-(5-Chloro-2-methoxy-4-methyl-3-(1-(1-methylpiperidin-4-yl)-1H-pyrazol-4-yl)phenyl)ethyl)-3-methyl-1H-pyrazolo[3,4-d]pyrimidin-4-amine]
< 10 | CCOc1c(C(C)n2nc(C)c3c(N)ncnc32)cc(Cl)c(C#N)c1C1CN(C(C)(C)CO)C1 (single isomer, unassigned) [Example 237, 4-[1-(4-Amino-3-methyl-1H-pyrazolo[3,4-d]pyrimidin-1-yl)ethyl]-6-chloro-3-ethoxy-2-[1-(2-hydroxy-1,1-dimethylethyl)azetidin-3-yl]benzonitrile]
< 10 | CCOc1c(C(C)n2nc(C)c3c(N)ncnc32)cc(Cl)c(C#N)c1C1CN(C2CCOCC2)C1 (single isomer, unassigned) [Example 229, 4-[1-(4-Amino-3-methyl-1H-pyrazolo[3,4-d]pyrimidin-1-yl)ethyl]-6-chloro-3-ethoxy-2-[1-(tetrahydro-2H-pyran-4-yl)azetidin-3-yl]benzonitrile]
< 10 | CCOc1c(C(C)n2nc(C)c3c(N)ncnc32)cc(Cl)c(F)c1C1CN(CC(F)(F)F)C1 (racemic) [Example 141, 1-(1-{5-Chloro-2-ethoxy-4-fluoro-3-[1-(2,2,2-trifluoroethyl)azetidin-3-yl]phenyl}ethyl)-3-methyl-1H-pyrazolo[3,4-d]pyrimidin-4-amine]

SMILES | IC50 [nM]
COc1c(C(C)n2nc(C)c3c(N)ncnc32)cc(Cl)c(C)c1-c1ccnc(C(=O)N(C)C)c1 (stereo not shown) [Example 16, 4-{3-[1-(4-Amino-3-methyl-1H-pyrazolo[3,4-d]pyrimidin-1-yl)ethyl]-5-chloro-2-methoxy-6-methylphenyl}-N,N-dimethylpyridine-2-carboxamide] | < 10
